Test results published in US11066399B2, “Ferroportin inhibitors” (Vifor (International) AG, priority 2015, dated 2021).

How the values were obtained:
human Fpn = target: T1, human Fpn (Homo sapiens, UniProt Q9NP59); test: Biophysical Ferroportin-Hepcidin Binding Assay (fluorescence polarization); conditions: average (AVE) of multiple measurements; TMR-hepcidin binding to purified human Fpn; read-out: FP IC50
T1 construct: FLAG (C); made in house; host or cells: Pichia pastoris
T1 sequence (Q9NP59 1-571): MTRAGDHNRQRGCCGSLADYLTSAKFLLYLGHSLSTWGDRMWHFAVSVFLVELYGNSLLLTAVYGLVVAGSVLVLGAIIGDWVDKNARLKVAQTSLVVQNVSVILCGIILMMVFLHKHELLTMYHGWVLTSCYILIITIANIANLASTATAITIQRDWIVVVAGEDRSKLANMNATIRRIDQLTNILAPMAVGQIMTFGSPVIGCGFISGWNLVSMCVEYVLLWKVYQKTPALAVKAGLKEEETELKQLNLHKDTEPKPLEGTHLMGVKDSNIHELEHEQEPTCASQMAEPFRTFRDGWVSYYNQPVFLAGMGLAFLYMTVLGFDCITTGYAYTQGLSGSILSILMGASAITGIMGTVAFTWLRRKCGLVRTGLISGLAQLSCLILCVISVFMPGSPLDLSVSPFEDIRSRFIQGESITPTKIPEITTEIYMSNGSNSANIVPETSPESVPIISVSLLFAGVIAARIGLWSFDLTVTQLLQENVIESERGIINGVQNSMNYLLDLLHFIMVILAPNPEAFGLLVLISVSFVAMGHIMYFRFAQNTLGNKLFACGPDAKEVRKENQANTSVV
Method: This biophysical assay was developed to confirm inhibition of hepcidin binding to ferroportin (Fpn) more directly. Incubation of TMR-hepcidin with purified human Fpn isolated from Pichia pastoris yeast cells expressing human Fpn with a C-terminal FLAG affinity tag (Bonaccorsi di Patti, 2014) leads to increased fluorescence polarization (FP) of the TMR-hepcidin ligand. Small molecular weight Fpn inhibitors were tested for inhibition of binding of TMR-hepcidin to Fpn, as detected by dose-dependent decrease of the TMR FP signal, as described in detail below.
A mixture of […] human Fpn and 30 nM TMR-hepcidin in FP assay buffer containing 50 mM Tris-HCl pH 7.3, 200 mM NaCl, 0.02% DDM, 0.1% BSA was plated into a 384 well black low volume round bottom plate (Corning, Cat. 3677) at 16 μl per well. 8 μl of serial dilutions of test compounds were added in duplicates to reach final Fpn and TMR-hepcidin concentrations of […] and 20 nM, respectively. Plates were incubated for 90 minutes at room temperature and parallel (S) and perpendicular (P) fluorescence was measured in a Synergy H1 fluorescence reader (BioTek). FP values were calculated in mP according to the following formula.

[1] = target: T2, human Fpn-GFP fusion protein (Homo sapiens, UniProt Q9NP59); test: Ferroportin Internalization and Degradation Assay (FACS); assay type: cell-based; conditions: average (AVE) of multiple measurements, Fpn-GFP MFI, HEK-293 cell line #354, FACS
T2 construct: expressed in transfected cells; host or cells: HEK-293 cell line #354 (derivative of HEK-293 Tet-ON Advanced, Clontech)
T2 sequence (Q9NP59 1-571): T1 sequence (Q9NP59 1-571)
Method: Growing HEK-293 #354 cells in doxycycline containing media induced expression of human Fpn-GFP fusion protein on the cell surface. […] Small molecular weight Fpn inhibitor compounds were tested for dose-dependent effects on the Fpn-GFP mean fluorescence intensity (MFI) on HEK-293 cell line #354, as described below. HEK #354 cells were harvested from ca. 80% confluent cultures, seeded at 0.6×10^6 cells/ml in DMEM/F12 GlutaMAX™ medium (Invitrogen, Cat. 31331-028) containing 10% FBS (Clontech, Cat. 631106), 1% Penicillin-Streptomycin (Invitrogen, Cat. 15140-122), 200 μg/ml Hygromycin B (Invitrogen, Cat. 10687-010), Blasticidin 5 μg/ml, (Invitrogen, Cat. R210-01), 4 μg/ml doxycycline (Clontech, Cat. 631311), 50 μl per well of 384 well plates (Greiner; Cat. 781091) and grown at 37° C. with 5% CO2. After overnight incubation, 10 μl/well of dilution series of the test compounds were added in quadruplicates and plates were further incubated overnight at 37° C. with 5% CO2. Cells were washed once with FACS buffer (PBS containing 1% FBS, 2 mM EDTA and 0.05% NaN3), harvested in FACS buffer with 0.5 μg/ml propidium iodide (Sigma, Cat. P4864) and analyzed in a flow cytometer (CANTO™ II, BD Biosciences) equipped with high throughput sampler. Live HEK #354 cells were gated as propidium iodide negative population and analyzed for expression of Fpn-GFP.

naïve WT C57BL/6 mice = test: Hypoferremia in naïve mice; assay type: in vivo, mouse; conditions: Mus musculus, po, 3 h, read-out: Serum Iron Reduction at 3 h (%)
Method: Female C57BL/6 mice (Janvier, France) at age of 9 weeks were fed a standard diet (Harlan Provimi Kliba 3436) and treated per os (p.o.) with compounds or the corresponding amount of vehicle at a volume of 10 ml/kg body weight. Fpn inhibitors were formulated in 0.5% methylcellulose/water or 20% cremophor EL/water and dosed p.o. in mice at 10, 30 or 100 mg/kg body weight. Three hours later, mice were pre-terminally anesthetized in isoflurane chambers and blood was collected by retro-orbital bleeding. Mice were sacrificed by cervical dislocation and spleens, livers and duodena were harvested and used for biomarker analysis. All experiments have been conducted in compliance with the license approved by the responsible veterinarian authorities. Serum was isolated by centrifugation of blood into gel-containing microtainers and serum iron was determined by the MULTIGENT Iron assay (Abbott Diagnostics, 6K95). Eight mice per group were used and one-way ANOVA with Bonferroni's multiple comparison test was performed to analyze the statistical differences between the experimental groups.
Relative serum iron reduction at 3 h after dosing was calculated by subtracting the average of serum iron values of animals dosed with the Fpn inhibitor from that of vehicle-treated animals. The difference in average serum iron values between vehicle and compound treated groups was then divided by the average of serum iron of the vehicle control group and listed as percentage.

| Compound | IC50 (human Fpn) [nM] | EC50 [1] [nM] | DC50 ([1]; read-out: EC50 (the source's name)) [nM] | inhibition in vivo at 10 mg/kg (naïve WT C57BL/6 mice) [%] | inhibition in vivo at 30 mg/kg (naïve WT C57BL/6 mice) [%] | inhibition in vivo at 100 mg/kg (naïve WT C57BL/6 mice) [%] |
| --- | --- | --- | --- | --- | --- | --- |
| O=C(NCc1ncccc1F)c1cnc(CCNCCc2nc3ccccc3[nH]2)o1 [Example 1] | 16 | 220 |  |  |  |  |
| O=C(NCc1ncccc1F)c1cnc(C2CN(CCc3nc4ccccc4[nH]3)C2)o1 [Example 2] | 17 | 630 |  |  |  |  |
| O=C(NCc1ncccc1F)c1csc(CCNCc2nc3ccccc3[nH]2)n1 [Example 40] | 68 | 810 |  |  |  |  |
| O=C(NCc1ncccc1F)c1cnn(CCNCCc2cc3ccccc3[nH]2)c1 [Example 277] |  |  | 69 | 6 | 21 | 54 |
